Experimental data as given in patent publication US9023882B2, “5-membered nitrogen containing heterocyclic derivatives and pharmaceutical compositions comprising the same” (Kissei Pharmaceutical Co., Ltd., priority 2007, dated 2015).

Target: Xanthine oxidase (from bovine milk, Sigma) (Bos taurus (Bovine), UniProt P80457)
Test: Xanthine oxidase inhibitory activity
Type: biochemical
Conditions: 100 μM xanthine final, absorbance at 290 nm
Description: (1) Preparation of Test Compounds
Test compounds were dissolved in DMSO (Wako) at 40 mM concentration and then diluted to intended concentrations with phosphate-buffered saline (PBS).
(2) Method for Measurement
Xanthine oxidase (from bovine milk, Sigma) was prepared with phosphate-buffered saline (PBS) at 0.02 units/mL, and then the solution was added to 96 well plates at 50 μL/well. In addition, test compounds diluted with PBS were added at 50 μL/well. Xanthine (Wako) at 200 μM prepared with PBS was added at 100 μL/well, and the reaction was conducted for 10 minutes at room temperature. Absorbance at 290 nm was measured using a microplate reader SpectraMax Plus 384 (Molecular device). The absorbance under a condition without xanthine is 0%, and control without test compounds is 100%. Fifty % inhibitory concentration of a test compound (IC50) was calculated (Tables 91 to 92). Ex. No in the table indicates Example number.

Xanthine oxidase (from bovine milk, Sigma), sequence (P80457 whole entry): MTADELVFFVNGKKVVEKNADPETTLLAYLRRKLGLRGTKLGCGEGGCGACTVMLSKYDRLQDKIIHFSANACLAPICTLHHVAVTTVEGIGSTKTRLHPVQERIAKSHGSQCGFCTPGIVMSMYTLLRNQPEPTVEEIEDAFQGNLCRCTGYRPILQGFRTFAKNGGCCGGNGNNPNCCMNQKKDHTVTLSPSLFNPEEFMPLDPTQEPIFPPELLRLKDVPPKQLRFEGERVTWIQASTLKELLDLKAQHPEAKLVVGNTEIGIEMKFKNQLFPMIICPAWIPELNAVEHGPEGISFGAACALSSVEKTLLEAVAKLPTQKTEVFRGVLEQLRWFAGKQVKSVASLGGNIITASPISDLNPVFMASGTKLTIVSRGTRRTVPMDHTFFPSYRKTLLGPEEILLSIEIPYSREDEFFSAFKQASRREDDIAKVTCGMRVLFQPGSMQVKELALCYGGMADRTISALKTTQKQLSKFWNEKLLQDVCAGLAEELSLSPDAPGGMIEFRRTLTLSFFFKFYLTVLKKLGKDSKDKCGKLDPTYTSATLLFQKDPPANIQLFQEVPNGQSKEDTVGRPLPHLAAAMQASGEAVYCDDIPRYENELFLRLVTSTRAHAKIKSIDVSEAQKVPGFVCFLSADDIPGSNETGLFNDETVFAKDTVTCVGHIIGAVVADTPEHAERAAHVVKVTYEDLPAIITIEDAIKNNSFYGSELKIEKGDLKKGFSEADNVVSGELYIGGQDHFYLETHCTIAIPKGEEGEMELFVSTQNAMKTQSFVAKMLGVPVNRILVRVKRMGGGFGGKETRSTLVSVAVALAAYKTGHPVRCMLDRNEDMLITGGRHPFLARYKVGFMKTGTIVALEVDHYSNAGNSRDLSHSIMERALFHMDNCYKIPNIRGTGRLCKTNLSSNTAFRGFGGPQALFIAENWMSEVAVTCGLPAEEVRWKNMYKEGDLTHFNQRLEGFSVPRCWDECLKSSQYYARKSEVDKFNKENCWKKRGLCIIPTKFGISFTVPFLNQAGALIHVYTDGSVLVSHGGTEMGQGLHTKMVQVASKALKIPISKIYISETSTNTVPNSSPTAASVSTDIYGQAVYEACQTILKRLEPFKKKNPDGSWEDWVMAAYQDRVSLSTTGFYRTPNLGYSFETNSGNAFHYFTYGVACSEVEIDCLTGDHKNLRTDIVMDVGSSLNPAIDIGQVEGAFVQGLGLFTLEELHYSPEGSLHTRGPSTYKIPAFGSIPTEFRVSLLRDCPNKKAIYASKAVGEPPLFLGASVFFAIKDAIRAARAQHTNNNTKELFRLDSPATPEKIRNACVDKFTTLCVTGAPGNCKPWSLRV

N#Cc1cn(-c2ccc(C(=O)O)c(O)c2)cc1-c1cccc(Cl)c1 [Example 278]
IC50: 49.1 nM

COc1cccc(-c2cn(-c3ccc(C(=O)O)c(O)c3)cc2C#N)c1 [Example 279]
IC50: 8.4 nM

Cc1cccc(-c2cn(-c3ccc(C(=O)O)c(O)c3)cc2C#N)c1 [Example 280]
IC50: 15.6 nM

N#Cc1cn(-c2ccc(C(=O)O)c(O)c2)cc1-c1cccc(C(F)(F)F)c1 [Example 281]
IC50: 41.2 nM

COc1cn(-c2ccc(C(=O)O)c(O)c2)cc1C#N [Example 282]
IC50: 5.3 nM

COc1ccc(-c2cn(-c3ccc(C(=O)O)c(O)c3)cc2C#N)c(F)c1 [Example 283]
IC50: 6.2 nM

COc1ccc(F)c(-c2cn(-c3ccc(C(=O)O)c(O)c3)cc2C#N)c1 [Example 284]
IC50: 9.3 nM

COc1ccc(-c2cn(-c3ccc(C(=O)O)c(O)c3)cc2C#N)cc1OC [Example 285]
IC50: 3.9 nM

COc1ccc2ccccc2c1-c1cn(-c2ccc(C(=O)O)c(O)c2)cc1C#N [Example 286]
IC50: 27.5 nM

N#Cc1cn(-c2ccc(C(=O)O)c(O)c2)cc1CCc1ccccc1 [Example 287]
IC50: 5.8 nM

N#Cc1cn(-c2ccc(C(=O)O)c(O)c2)cc1/C=C/c1ccccc1 [Example 288]
IC50: 10.4 nM

N#Cc1cn(-c2ccc(C(=O)O)c(O)c2)cc1-c1cc2ccccc2s1 [Example 289]
IC50: 22.6 nM

N#Cc1cn(-c2ccc(C(=O)O)c(O)c2)cc1-c1cc2ccccc2o1 [Example 290]
IC50: 27.6 nM

N#Cc1cn(-c2ccc(C(=O)O)c(O)c2)cc1-c1csc2ccccc12 [Example 291]
IC50: 6.4 nM

Cn1cc(-c2cn(-c3ccc(C(=O)O)c(O)c3)cc2C#N)c2ccccc21 [Example 292]
IC50: 5.2 nM

COc1ccccc1/C=C/c1cn(-c2ccc(C(=O)O)c(O)c2)cc1C#N [Example 293]
IC50: 15.9 nM

COc1ccccc1CCc1cn(-c2ccc(C(=O)O)c(O)c2)cc1C#N [Example 294]
IC50: 11.2 nM

COc1ccc(/C=C/c2cn(-c3ccc(C(=O)O)c(O)c3)cc2C#N)cc1 [Example 295]
IC50: 28.8 nM

COc1ccc(CCc2cn(-c3ccc(C(=O)O)c(O)c3)cc2C#N)cc1 [Example 296]
IC50: 5.6 nM

O=C(O)c1ccc(-n2cc(C(=O)O)c(C(F)(F)F)c2)cc1O [Example 297]
IC50: 18.9 nM

CCOC(=O)c1cn(-c2ccc(C(=O)O)c(O)c2)cc1C(F)(F)F [Example 298]
IC50: 6.6 nM

N#Cc1cn(-c2ccc(C(=O)O)c(O)c2)cc1C(=O)O [Example 299]
IC50: 7.9 nM

N#Cc1cn(-c2ccc(C(=O)O)c(O)c2)cc1C(F)(F)F [Example 300]
IC50: 7.9 nM

N#Cc1cn(-c2ccc(C(=O)O)c(O)c2)nc1-c1ccccc1 [Example 302]
IC50: 4.9 nM

N#Cc1cn(-c2ccc(C(=O)O)c(O)c2)cc1-c1ccccc1Oc1ccccc1 [Example 303]
IC50: 49.4 nM

N#Cc1cn(-c2ccc(C(=O)O)c(O)c2)cc1-c1cccn1-c1ccccc1 [Example 304]
IC50: 15.1 nM

N#Cc1cn(-c2ccc(C(=O)O)c(O)c2)cc1-c1ccc2c(c1)OCCO2 [Example 305]
IC50: 7.3 nM

Cc1ccccc1-c1cn(-c2ccc(C(=O)O)c(O)c2)cc1C#N [Example 307]
IC50: 7.5 nM

N#Cc1cn(-c2ccc(C(=O)O)c(O)c2)cc1-c1ccccc1Cl [Example 308]
IC50: 7.5 nM

COc1ccccc1-c1cn(-c2ccc(C(=O)O)c(O)c2)cc1C#N [Example 309]
IC50: 6.5 nM

Cc1ccc(-c2cn(-c3ccc(C(=O)O)c(O)c3)cc2C#N)s1 [Example 310]
IC50: 17.5 nM

Cc1ccsc1-c1cn(-c2ccc(C(=O)O)c(O)c2)cc1C#N [Example 311]
IC50: 6.9 nM

N#Cc1cn(-c2ccc(C(=O)O)c(O)c2)cc1-c1ccccc1C(F)(F)F [Example 312]
IC50: 9.9 nM

N#Cc1cn(-c2ccc(C(=O)O)c(O)c2)cc1-c1ccc(Cl)s1 [Example 313]
IC50: 5.2 nM

N#Cc1cn(-c2ccc(C(=O)O)c(O)c2)cc1-c1ccc(Cl)cc1 [Example 315]
IC50: 14.6 nM

COc1ccc(-c2cn(-c3ccc(C(=O)O)c(O)c3)cc2C#N)cc1 [Example 316]
IC50: 9 nM

Cc1ccc(-c2cn(-c3ccc(C(=O)O)c(O)c3)cc2C#N)cc1 [Example 317]
IC50: 6.8 nM

N#Cc1cn(-c2ccc(C(=O)O)c(O)c2)cc1-c1ccc(C(F)(F)F)cc1 [Example 318]
IC50: 17 nM

N#Cc1cn(-c2ccc(C(=O)O)c(O)c2)cc1-c1ccccc1F [Example 319]
IC50: 8.1 nM

N#Cc1cn(-c2ccc(C(=O)O)c(O)c2)cc1-c1ccc(F)cc1 [Example 320]
IC50: 10.6 nM

N#Cc1cn(-c2ccc(C(=O)O)c(O)c2)cc1-c1ccc2c(c1)OCO2 [Example 321]
IC50: 10.9 nM

N#Cc1cn(-c2ccc(C(=O)O)c(O)c2)cc1-c1cccc2c1OCO2 [Example 322]
IC50: 6.5 nM

N#Cc1cn(-c2ccc(C(=O)O)c(O)c2)cc1-c1cccc2ccccc12 [Example 325]
IC50: 13.1 nM
